In PMC5840262, “Design, Synthesis and Evaluation of Branched RRWQWR-Based Peptides as Antibacterial Agents Against Clinically Relevant Gram-Positive and Gram-Negative Pathogens” (Frontiers in Microbiology, 2018):
In brackets after ≈: the same amount, converted by molar mass. Bridge positions count the residues as written; N and C are the ends. Square brackets hold non-standard residues; d marks the D form. Ends that are not written are not given here. Peptide text beside a SMILES is read from it. I, II: the chains in the order shown. Ahx = NCCCCCC(=O)O

What was measured:
[1] = system: Klebsiella pneumoniae ATCC 700603 (resistant); settings: K. pneumoniae ATCC 700603, resistant strain; MIC50 previously obtained with the same assay (M7-A7); ref Leon-Calvijo et al., 2015; cited from earlier work
Description: Table 6 Therapeutic Index values for the RRWQWR-based peptides against the ATCC strains of HCAI-relevant bacteria. | column: Gram negative / MIC (μM) / ^l700603-^fR

[2] = system: Klebsiella pneumonia ATCC 13883 (sensitive); settings: K. pneumoniae ATCC 13883, sensitive strain; MIC50 previously obtained with the same assay (M7-A7); ref Leon-Calvijo et al., 2015; cited from earlier work
Description: Table 6 Therapeutic Index values for the RRWQWR-based peptides against the ATCC strains of HCAI-relevant bacteria. | column: Gram negative / MIC (μM) / ^k13883-^cS

[3] = system: Gram-positive ATCC strains (E. faecalis 29212, S. aureus 25923 and 33591); test: Therapeutic index, Gram-positive ATCC strains; settings: for Fold (GM peptide / GM tetrameric peptide): Gram-positive ATCC strains; for Gm, geometric mean of MIC50 values: Gram-positive ATCC strains 29212, 25923, 33591
Description: We determined the therapeutic index of each peptide, which we defined as the ratio of Maximum Hemolytic Activity (Hmax) to MIC50 (Hmax/MIC50).
The therapeutic index (TI) is a ratio of the toxic dose of a substance to its therapeutically-active dose and can be calculated different ways (e.g., LD50/ED50). Here, we calculated a TI value for each peptide against all the Gram-positive or the Gram-negative ATCC strains, by dividing its Hmax by its MIC50 for the given group of strains. […] Additionally, to make our quantitative analysis more robust [geometric mean (Khachatryan et al., [2017]) and fold values], we have included MIC50 values for these peptides against S. aureus and K. pneumoniae that we previously obtained using the same assay, the M7-A7 method of the National Committee for Clinical Laboratory Standards (Leon-Calvijo et al., [2015]).

[4] = system: E. faecalis ATCC-29212 (sensitive); test: Scanning electron microscopy of treated bacteria; type: cell-based, Enterococcus faecalis; settings: 3 × MIC50, 2 h, 37°C
Procedure: (§1) We observed bacterial morphology by SEM. The E. faecalis and P. aeruginosa strains were grown to mid-logarithmic phase, and adjusted spectrophotometrically to a McFarland standard of 0.5 (corresponding to ~1 × 10^8 CFU/mL). Subsequently, 1 mL of bacterial suspension was distributed into three tubes: one tube was treated with (RRWQWR)2KAhx at 3 × the MIC50; another tube, with (RRWQWR)4K2Ahx2C2 at the same concentration; and the third tube was left untreated, as a control. The samples were incubated aerobically at 37°C for 2 h, and the bacterial suspensions were centrifuged at 1,459 × g for 3 min and then, washed twice with Millonig's Phosphate Buffer (0.10 M, pH 7.4). For SEM, each sample was fixed with 1 mL of 2.5% glutaraldehyde at 4°C for 2 h. The fixed samples were dehydrated in an ethanol gradient (50, 70, 80, 90, and 100%) for 20 min and then, centrifuged at 1,459 × g for 10 min. The bacterial pellet was resuspended in 100% ethyl alcohol and air-dried. Finally, the slides were taped onto stubs, coated with gold using a Quorum Q150R sputter coater, and observed with an FEI Quanta 200-r microscope.
We used SEM to study the morphology of bacterial cells before and after treatment with either branched peptide (dimeric and tetrameric). […]

[5] = system: Staphylococcus aureus ATCC 33591 (resistant); settings: S. aureus ATCC 33591, resistant strain; MIC50 previously obtained with the same assay (M7-A7); ref Leon-Calvijo et al., 2015; cited from earlier work
Description: Table 6 Therapeutic Index values for the RRWQWR-based peptides against the ATCC strains of HCAI-relevant bacteria. | column: Gram positive / MIC (μM) / ^e33591-^fR

[6] = system: Staphylococcus aureus ATCC 25923 (sensitive); settings: S. aureus ATCC 25923, sensitive strain; MIC50 previously obtained with the same assay (M7-A7); ref Leon-Calvijo et al., 2015; cited from earlier work
Description: Table 6 Therapeutic Index values for the RRWQWR-based peptides against the ATCC strains of HCAI-relevant bacteria. | column: Gram positive / MIC (μM) / ^d25923-^cS

[7] = system: P. aeruginosa ATCC-27853 (resistant); test: Scanning electron microscopy of treated bacteria; type: cell-based, Pseudomonas aeruginosa; settings: 3 × MIC50, 2 h, 37°C
Procedure: as §1
(§2) We used SEM to study the morphology of bacterial cells before and after treatment with either branched peptide (dimeric and tetrameric). To this end, each strain of E. faecalis and P. aeruginosa was first studied by SEM; then, independently treated in the exponential phase with either peptide at 3 × the corresponding MIC50 value for 2 h (except for the resistant E. faecalis strain, for which a peptide concentration of 200 μM was used); and finally, studied by SEM again.

[8] = system: P. aeruginosa ATCC-10145 (sensitive); test: Scanning electron microscopy of treated bacteria; type: cell-based, Pseudomonas aeruginosa; settings: 3 × MIC50, 2 h, 37°C
Procedure: as §1, §2

[9] = system: ATCC reference strains; test: Antibacterial activity against the ATCC reference strains, overall; type: cell-based; settings: against the ATCC reference strains of E. faecalis and P. aeruginosa, all strains together
Procedure: We screened all five peptides against the ATCC reference strains and the clinical isolates according to Method M7-A7 of the National Committee for Clinical Laboratory Standards (CLSI, [2007]). The MIC50 and MBC values were determined using a broth microdilution and growth inhibition method previously reported by Leon-Calvijo et al. ([2015]), with some modifications (Wiegand et al., [2008]). Briefly, the MIC50 experiments comprised a liquid-inhibition growth assay in a sterile, untreated, 96-well flat-bottom tissue culture plate. […] The turbidity of the cultures was measured and adjusted spectrophotometrically to a McFarland standard of 0.5, and then diluted to a final concentration of 5 × 10^7 colony forming units (CFU) per well. […] Each concentration was evaluated in duplicate and each assay was performed in triplicate.
Wells containing Mueller Hilton broth with bacterial inoculum only served as bacterial-growth controls. […] The microplate was incubated for 24 h at 37°C, and growth inhibition was measured by monitoring the optical density at 620 nm (OD620). […]
To determine the MBC, an aliquot from each well of the MIC50 assay was spread onto Mueller Hilton agar. After 18 h at 37°C, the concentration that inhibited bacterial growth was determined. […]

| Compound | MIC [1] | MIC [2] | Fold (GM peptide / GM tetrameric peptide) [3] | Gm, geometric mean of MIC50 values [3] | Morphology of bacterial cells by SEM after treatment [4] | MIC [5] | MIC [6] | Morphology of bacterial cells by SEM after treatment [7] | Morphology of bacterial cells by SEM after treatment [8] | MIC50 [9] |
| --- | --- | --- | --- | --- | --- | --- | --- | --- | --- | --- |
| N=C(N)NCCC[C@H](NC(=O)[C@H](Cc1c[nH]c2ccccc12)NC(=O)[C@H](CCC(N)=O)NC(=O)[C@H](Cc1c[nH]c2ccccc12)NC(=O)[C@H](CCCNC(=N)N)NC(=O)[C@@H](N)CCCNC(=N)N)C(=O)NCCCC[C@H](NC(=O)[C@H](CCCNC(=N)N)NC(=O)[C@H](Cc1c[nH]c2ccccc12)NC(=O)[C@H](CCC(N)=O)NC(=O)[C@H](Cc1c[nH]c2ccccc12)NC(=O)[C@H](CCCNC(=N)N)NC(=O)[C@@H](N)CCCNC(=N)N)C(=O)NCCCCCC(N)=O [LfcinB (20–25)2] (I: H-RRWQWRK[Ahx]-NH2 / II: H-RRWQWR; amide I:7-II:C; N-terminus assumed) | 7.3 µM (≈ 16 µg/mL) | 9.0 µM (≈ 19.8 µg/mL) | 3.1 | 9.8 µM | random organization with morphological alterations | 24.1 µM (≈ 52.9 µg/mL) | 3.0 µM (≈ 6.59 µg/mL) | marked drop in population and severe morphological alterations | clear reduction in population and caused morphological alterations | – |
| (RRWQWR)4K2Ahx2C2 (disulfide) [LfcinB (20–25)4, branched tetrameric peptide (RRWQWR)4K2Ahx2C2, two dimers linked by a cysteine disulfide bridge] | 6.2 µM | 12.0 µM | 1.0 | 3.1 µM | population decline, cell-size heterogeneity and cell-surface alterations in the form of protrusions | 5.9 µM | 1.7 µM | disintegrated and irregularly-shaped mucoid cells | very heterogeneous population and to alterations in the cell surface | – |
| RRWQWR-NH2 [LfcinB (20–25), reference compound] | – | – | – | – | – | – | – | – | – | > 200 µM |
